Reference: article PMC6614837 (Nucleic Acids Research, 2019)

Legend:
P RNA = assay: Gel-based activity assay, bipartite pre-tRNA substrate, P RNA alone; type: biochemical, T. maritima; details: 100 mM AmOAc, 10 mM MgCl2
Method: For gel-based activity assays, reactions were prepared as described in the previous section (fluorescence activity assay), incubated for 1–15 min at 37–50°C, then loaded onto a denaturing 7 M urea–20% acrylamide gel in the case of the Mh substrate or 19% acrylamide (40% acrylamide/bisacrylamide 38.5:1.5) for the bipartite pre-tRNA substrate. The activity conditions for the gel reported in Figure 3A, to monitor the cleavage of the holoenzyme and P RNA, were under 100 mM AmOAc and 10 mM MgCl2. The gels (13 × 16 × 0.15 cm) were electrophoresed at 20 V/cm for 2–3 h. UV shadowing or ethidium bromide staining was used to visualize RNA cleavage. Detection of minihelix fluorescence was achieved without staining using a UV lamp with excitation at ∼254 nm.
Figure 3. The inhibitors purpurin and hematein bind to the holoenzyme. (A) Top. […] Bottom. […] (B) The relative affinities of the inhibitors for the P RNA or the holoenzyme differ. Binding sensorgrams obtained by biolayer interferometry (BLI). P RNA or RNase P holoenzyme was immobilized on super streptavidin (SSA) biosensors through a 5′-biotinylated RNA oligonucleotide complementary to a region on the P1 stem of P RNA (see Materials and Methods). […] In contrast, gentian violet binds not only to P RNA but also to the Mh substrate (Supplementary Figure S16). (C) Molecular Dynamics (MD) simulations of RNase P protein in complex with the validated inhibitors. In each panel, semitransparent spheres represent the geometric center, over a 200 ns trajectory, of the corresponding tested compound. The 5′-leader (yellow) is shown for reference purposes only; it was not included in the simulation. Sphere color coding indicates the starting and final positions in blue and red, respectively. […] Purpurin's starting conformation corresponds to that observed in the crystal structure in complex with the P protein (PDB code: 6MAX. See Figure 5).

[1] = test system: 3'-biotinylated minihelix (Mh; pMini3bpUG) (RNA, hairpin) GAUCUGAAUGCGGAAACGCGCCAC; assay: biolayer interferometry; details: Mg2+ 10 mM, NH4+ 100 mM (ammonium acetate); 20 mM HEPES pH 7.4, DMSO, 30°C; highest concentration tested 1 mM
RNase P holoenzyme = target: T1, RNase P holoenzyme (Thermotoga maritima, UniProt Q9X1H4); assay: Displacement of pre-tRNA from the holoenzyme (BLI); type: binding, T. maritima; details: holoenzyme on Ni-NTA biosensors, compound 0–400 μM, then pre-tRNA
T1 construct: GST (cleaved yes); made in house; host or cells: E. coli BL21(DE3)pLysS
T1 sequence (Q9X1H4 1-117): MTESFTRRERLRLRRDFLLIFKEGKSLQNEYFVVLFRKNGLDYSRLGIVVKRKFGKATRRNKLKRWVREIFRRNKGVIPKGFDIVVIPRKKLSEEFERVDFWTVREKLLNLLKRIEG
Method: Real-time binding assays of the holoenzyme, P RNA, P protein, the substrate minihelix and the 5′-leader to individual compounds were performed by biolayer interferometry using an Octet RED96 system (ForteBio). For the holoenzyme or P RNA, a 5′ biotinylated RNA oligonucleotide with the sequence 5′biotin-CAUUCCAGACGAU was immobilized on Super Streptavidin (SSA) biosensors. Then, a modified P RNA or holoenzyme was added. The P RNA modification consisted of a sequence with part of the P1 stem sequence complementary to the biotinylated oligonucleotide (AUCGUCUGGA) (Supplementary Figure S23A). P1 is far from the active site or other regions involved in specific interactions (Supplementary Figure S23B) ([19]). The activity of this construct was indistinguishable from the wild-type holoenzyme. Alternatively, the holoenzyme was immobilized through the His-tagged P protein from T. maritima at 0.05 mg/ml (3.4 μM) on Ni-NTA biosensors. Control biosensors were used to subtract non-specific binding of compounds to the biosensor surface. All assay steps (immobilization, wash, baseline, association, and dissociation) were performed in 20 mM HEPES pH 7.4, 100 mM ammonium acetate, 10 mM MgCl2, 2.5% DMSO. The assays were performed on black bottom 96-well microplates (Greiner Bio-One 655209) in a total volume of 200 μl, at 30°C with orbital shaking at 1000 rpm. Experiments were controlled with the software Data Acquisition 8.2 (ForteBio, Inc.). Kinetic binding parameters were calculated using Data Analysis 8.2 (ForteBio, Inc.). After subtraction of reference biosensors, the binding curves were aligned to the X- and Y-axis and the association-dissociation inter-step curve in order to get a common baseline for the association and dissociation phases.
Figure 4. Characterization of the inhibition of T. maritima RNase P by purpurin. (A) Best global fit for inhibition of RNase P in the presence of varying concentrations of fluorescent Mh substrate. […] Symbols represent the mean ± standard error as determined from three independent experiments at each concentration. See also Supplementary Figure S18. […] Binding sensorgrams obtained by biolayer interferometry (BLI). RNase P holoenzyme at 400 nM was immobilized on Ni-NTA. […] Binding sensorgrams obtained by biolayer interferometry (BLI). RNase P holoenzyme was immobilized on Ni-NTA biosensors, incubated with purpurin at varying concentrations (0–400 μM), and then the association and dissociation pre-tRNA was monitored. […] See also Supplementary Figure S17.

SMILES | Inhibition of the P RNA reaction (P RNA) | binding [1] | Dose–response displacement of pre-tRNA (RNase P holoenzyme)
O=C1C=C2CC3(O)COc4c(ccc(O)c4O)C3=C2C=C1O (stereo not drawn) [Hematein, 3,4,6a,10-tetrahydroxy-6a,7-dihydroindeno[2,1-c]chromen-9(6H)-one] | not the P RNA alone | no | No
O=C1C=CC(=O)c2c(O)cccc21 [Juglone, 5-hydroxy-1,4-naphthoquinone] | less clear behavior | no | No
O=C1c2ccccc2C(=O)c2c(O)c(O)cc(O)c21 [Purpurin, 1,2,4-trihydroxyanthraquinone] | not the P RNA alone | no | displaces bound pre-tRNA in a dose-response behavior and Yes
